Test systems include ACHN; HOP-62; K562; SK-MEL-28; TK-10; SN12C; Malme-3M; SK-MEL-2; U-251; HCC 2998; MOLT-4; DMS-273; PC-3; 786-0; SR; MCF7; SNB-75; NCI-H23; HCT-15; EKVX.
What all share (test): NCI tumour cell line growth inhibition, 48 h

Consider seven compounds from ChEMBL document CHEMBL1201862, “PubChem BioAssay data set” (2004).

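Values below derive from 48-hour exposures of cells grown in 96-well plates, with endpoints linearly interpolated between the two concentrations bracketing the appropriate inhibition level. The concentration for 50% growth inhibition is given as GI50.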 The source made the active and inactive calls. Cut-off read from the data, not from the text of the source: active = GI50 up to about 1.1 µM and inactive = higher.

On to `CCCCCCCCCCCCCCCCCCNC(=O)OCC(CNS(=O)(=O)CCC[n+]1cccc2ccccc21)COC` (stereo not drawn), for which the GI50 was 6.75 µM (inactive) with ACHN; 3.76 µM (inactive) in the test with HOP-62; 3.55 µM (inactive) in the test with K562; 4.74 µM (inactive) in the test on SK-MEL-28; 3.4 µM (inactive) in the test with TK-10; 1.56 µM (inactive) in the test with SN12C. Besides, the GI50 is 3.74 µM (inactive) in the test on Malme-3M; 1.9 µM (inactive) with SK-MEL-2; 0.596 µM (active) in the test with U-251; 1.34 µM (inactive) in the test with HCC 2998; 1.11 µM (active) with MOLT-4; 0.251 µM (active) in the test on DMS-273. In addition, the GI50 in the test on PC-3 was 1.76 µM (inactive); in the test with 786-0 it was 3.45 µM (inactive); in the test with SR it was 2.04 µM (inactive); with MCF7, 1.55 µM (inactive); in the test with SNB-75, 2.47 µM (inactive); in the test with NCI-H23 it was 1.16 µM (inactive). Moreover, the GI50 with HCT-15 is 23.7 µM; in the test with EKVX it was 17.7 µM (inactive).

For `Cc1nc2c(n1CCC(C)C)C(=O)c1ccccc1C2=O`, the GI50 in the test with ACHN is 29.9 µM (inactive); in the test with HOP-62, 18 µM (inactive); in the test with K562, 8.07 µM (inactive); with SK-MEL-28, 17.3 µM (inactive); in the test with TK-10 it was 41.2 µM (inactive); in the test with SN12C, 23.2 µM (inactive). Moreover, the GI50 in the test with Malme-3M was 24.1 µM (inactive); in the test on SK-MEL-2 it was 17.5 µM (inactive); in the test on U-251 it was 12.7 µM (inactive); with HCC 2998, 40.9 µM (inactive); in the test on MOLT-4, 8.26 µM (inactive); in the test on DMS-273 it was 11 µM (inactive). In addition, the GI50 in the test with 786-0 was 24.9 µM (inactive); with SR, 4.71 µM (inactive); in the test with SNB-75, 20.1 µM (inactive); in the test on NCI-H23 it was 22.3 µM (inactive); in the test on HCT-15, 11.9 µM; with EKVX, 29.7 µM (inactive).

In the case of `CN/N=C(\C)CC(=O)Nc1cccc(Cl)c1C`, the GI50 in the test with ACHN, with HOP-62, in the test with K562, in the test with SK-MEL-28, with TK-10 and with SN12C was > 100 µM (inactive) each time. In addition, the GI50 was > 100 µM (inactive) in the test with Malme-3M; > 100 µM (inactive) with SK-MEL-2; > 100 µM (inactive) with U-251; > 100 µM (inactive) in the test with HCC 2998; > 100 µM (inactive) with MOLT-4; 53.7 µM (inactive) with DMS-273. The GI50 was > 100 µM (inactive) with 786-0; 28.6 µM (inactive) in the test with SR; > 100 µM (inactive) with SNB-75; > 100 µM (inactive) in the test on NCI-H23; greater than 100 µM with HCT-15; > 100 µM (inactive) with EKVX.

As to `CC(=O)/C=C/c1ccc(C2CC(C)=Nc3c(ccc4c3C(=O)c3ccccc3C4=O)N2)cc1` (stereo not drawn), the GI50 in the test on ACHN was 19 µM (inactive); in the test on HOP-62 it was 58.1 µM (inactive); in the test with K562, > 57.5 µM (inactive); in the test on SK-MEL-28, > 100 µM (inactive); in the test on TK-10, 8.89 µM (inactive); in the test with SN12C, > 81.5 µM (inactive). Also, the GI50 in the test on Malme-3M was 89.1 µM (inactive); with SK-MEL-2, > 29.6 µM (inactive); in the test with U-251, 59.7 µM (inactive); in the test with HCC 2998 it was > 100 µM (inactive); with MOLT-4, > 100 µM (inactive); with DMS-273, 66.1 µM (inactive). Also, the GI50 in the test on 786-0 is 54.6 µM (inactive); in the test with SR it was > 100 µM (inactive); in the test with SNB-75, 14.8 µM (inactive); with NCI-H23, > 67.3 µM (inactive); in the test with HCT-15, 27.2 µM; in the test with EKVX it was 27.3 µM (inactive).

`O=C(CC12C3C4C1C1C2C3C41CC(=O)NO)NO` (stereo not drawn): the GI50 in the test on ACHN was > 100 µM (inactive); with HOP-62 it was 40.8 µM (inactive); in the test on K562 it was 25.2 µM (inactive); in the test on SK-MEL-28, 60.4 µM (inactive); in the test on TK-10, > 100 µM (inactive); in the test on SN12C, 41.2 µM (inactive). The GI50 in the test on Malme-3M is 31 µM (inactive); in the test with SK-MEL-2 it was > 100 µM (inactive); in the test on U-251, 35.7 µM (inactive); in the test on HCC 2998, > 100 µM (inactive); with MOLT-4, 45.8 µM (inactive); with DMS-273 it was 40.6 µM (inactive). For the same compound, the GI50 in the test on 786-0 was 40.7 µM (inactive); in the test with SR, 49.3 µM (inactive); in the test on SNB-75, 29.6 µM (inactive); in the test on NCI-H23 it was 78.2 µM (inactive); in the test with HCT-15, 44.2 µM; in the test on EKVX, > 100 µM (inactive).

With `C=CC1=CC(C)C[C@]1(O)C(=O)OC` (stereo partly drawn), the GI50 with ACHN, in the test on HOP-62, with K562, with SK-MEL-28, in the test with TK-10 and with SN12C was < 0.01 µM (active) throughout. Further, the GI50 in the test with Malme-3M, in the test with SK-MEL-2, in the test with U-251, in the test with HCC 2998, in the test with MOLT-4 and with DMS-273 was < 0.01 µM (active) throughout. Also, the GI50 with 786-0 was < 0.01 µM (active); with SR, 2.75 µM (inactive); with SNB-75 it was < 0.01 µM (active); with NCI-H23, < 0.01 µM (active); in the test with HCT-15, greater than 100 µM; in the test on EKVX, < 0.01 µM (active).

With `CSc1ccc2c(cc1=O)C(NC(=O)c1ccc(OC(C)=O)cc1)CCc1cc(O)c(O)c(O)c1-2` (stereo not drawn), the GI50 was 66.8 µM (inactive) with ACHN; 26.9 µM (inactive) with HOP-62; 1.95 µM (inactive) in the test on K562; 61.7 µM (inactive) with SK-MEL-28; 91.2 µM (inactive) in the test with TK-10; 16.3 µM (inactive) in the test on SN12C. Moreover, the GI50 with Malme-3M was 48.9 µM (inactive); with SK-MEL-2, 16.2 µM (inactive); with U-251 it was 20.4 µM (inactive); with HCC 2998, 74.1 µM (inactive); with MOLT-4 it was 5.11 µM (inactive); with DMS-273 it was 22.5 µM (inactive). Also, the GI50 in the test on 786-0 was 31 µM (inactive); in the test on SR it was 7.94 µM (inactive); in the test on SNB-75, 20 µM (inactive); with NCI-H23, 25.3 µM (inactive); with HCT-15, 18.8 µM; in the test on EKVX it was 20.5 µM (inactive).
